Values quoted from earlier work in patent EP3807270B1, “NOVEL HETEROARYL HETEROCYCLYL COMPOUNDS FOR THE TREATMENT OF AUTOIMMUNE DISEASE” (F. Hoffmann-La Roche AG, priority 2018, dated 2019).

Biological target: T1, hTLR7 (Homo sapiens, UniProt Q9NYK1)
T1 sequence (Q9NYK1 27-1049): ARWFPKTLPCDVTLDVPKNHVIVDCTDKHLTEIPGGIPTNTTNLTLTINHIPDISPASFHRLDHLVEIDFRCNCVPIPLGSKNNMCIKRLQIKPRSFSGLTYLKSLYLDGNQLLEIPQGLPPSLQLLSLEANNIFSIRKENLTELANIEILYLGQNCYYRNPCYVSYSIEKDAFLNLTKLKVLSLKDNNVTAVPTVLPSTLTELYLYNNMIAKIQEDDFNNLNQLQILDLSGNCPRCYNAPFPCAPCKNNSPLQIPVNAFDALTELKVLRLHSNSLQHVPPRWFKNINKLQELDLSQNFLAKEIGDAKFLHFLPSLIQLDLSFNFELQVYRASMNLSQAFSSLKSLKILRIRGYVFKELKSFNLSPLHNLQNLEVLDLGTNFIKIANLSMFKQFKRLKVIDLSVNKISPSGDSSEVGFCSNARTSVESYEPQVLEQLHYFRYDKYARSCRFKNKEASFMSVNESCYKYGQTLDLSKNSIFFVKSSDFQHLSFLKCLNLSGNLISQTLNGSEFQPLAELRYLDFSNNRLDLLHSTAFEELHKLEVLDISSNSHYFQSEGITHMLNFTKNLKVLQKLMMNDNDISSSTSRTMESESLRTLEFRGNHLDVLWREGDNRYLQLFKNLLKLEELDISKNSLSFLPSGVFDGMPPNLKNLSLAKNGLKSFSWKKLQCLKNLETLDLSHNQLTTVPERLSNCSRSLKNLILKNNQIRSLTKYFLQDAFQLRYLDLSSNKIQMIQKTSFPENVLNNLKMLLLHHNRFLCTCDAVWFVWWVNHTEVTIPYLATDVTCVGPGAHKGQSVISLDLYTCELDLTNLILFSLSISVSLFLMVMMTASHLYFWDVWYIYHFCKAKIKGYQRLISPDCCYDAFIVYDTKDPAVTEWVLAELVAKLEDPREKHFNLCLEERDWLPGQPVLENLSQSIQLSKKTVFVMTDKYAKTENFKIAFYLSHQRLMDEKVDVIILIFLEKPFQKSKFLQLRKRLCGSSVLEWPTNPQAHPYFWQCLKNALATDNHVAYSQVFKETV
Design: host or cells: HEK
Conditions: data disclosed in US20150105370; read-out: HEK/hTLR7 IC50; cited from earlier work

In the case of `C[C@@H]1CN(c2ccc(C#N)c3ncccc23)C[C@H](CN2CCN(c3ccncc3)CC2)O1` [ER-888286, reference compound], the IC50 is listed as 1370 nM.
